# From ChEMBL document CHEMBL5236605, “Design and synthesis of dual cathepsin L and S inhibitors and antimetastatic activity evaluation in pancreatic cancer cells” (Bioorg Med Chem Lett, 2023)
# The source made the active and inactive calls. The rule behind the calls is not given here.
# Target: T1, Procathepsin L (Homo sapiens, UniProt P07711)
# Assay: Inhibition of human cathepsin L
# Details: not given
# Target sequence in this assay (P07711 whole entry): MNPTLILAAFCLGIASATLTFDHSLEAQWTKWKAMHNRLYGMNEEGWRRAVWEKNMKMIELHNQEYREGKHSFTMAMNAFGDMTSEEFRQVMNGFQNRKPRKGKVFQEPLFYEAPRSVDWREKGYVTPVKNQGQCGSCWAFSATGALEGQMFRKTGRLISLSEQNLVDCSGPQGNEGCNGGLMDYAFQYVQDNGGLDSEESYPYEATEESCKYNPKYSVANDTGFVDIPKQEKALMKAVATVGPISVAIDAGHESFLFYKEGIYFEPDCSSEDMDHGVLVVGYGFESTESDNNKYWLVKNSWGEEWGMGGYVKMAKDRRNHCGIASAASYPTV
row,Compound,IC50 [µM]
1,N#Cc1ccccc1N1CCN(C[C@H](O)COC[C@H](Cc2ccccc2)NC(=O)C2CCN(C(=O)OCc3ccccc3)CC2)CC1,14.5
2,O=C(OC[C@@H](Cc1ccccc1)NS(=O)(=O)c1ccc(Br)cc1)[C@@H](Cc1ccccc1)NS(=O)(=O)c1ccccc1,6.03
3,COc1cccc(/C=C/C(=O)NC[C@H](Cc2ccccc2)NS(=O)(=O)c2ccc(C(F)(F)F)cc2)c1,> 100
4,N#Cc1ccccc1N1CCN(C[C@@H](O)COC[C@H](Cc2ccccc2)NS(=O)(=O)c2ccc(C(F)(F)F)cc2)CC1,45.9
5,N#Cc1ccccc1N1CCN(C[C@H](O)COC[C@@H](Cc2ccccc2)NS(=O)(=O)c2ccc(C(F)(F)F)cc2)CC1,40.7
6,COc1ccc(/C=C/C(=O)NC[C@H](Cc2ccccc2)NS(=O)(=O)c2ccc(Br)cc2)cc1OC,> 100
7,N#Cc1ccccc1N1CCN(C[C@H](O)COC[C@H](Cc2ccccc2)NS(=O)(=O)c2ccc(C(F)(F)F)cc2)CC1,41.1
8,COc1ccc(/C=C/C(=O)NC[C@H](Cc2ccccc2)NS(=O)(=O)c2ccc(C(F)(F)F)cc2)cc1OC,> 100
9,N#Cc1ccccc1N1CCN(C[C@@H](O)COC[C@@H](Cc2ccccc2)NC(=O)c2ccncc2)CC1,29.8
10,N#Cc1ccccc1N1CCN(C[C@H](O)COC[C@H](Cc2ccccc2)NS(=O)(=O)c2ccc(Br)cc2)CC1,8.53
11,N#Cc1ccccc1N1CCN(C[C@@H](O)COC[C@@H](Cc2ccccc2)NS(=O)(=O)c2ccc(Br)cc2)CC1,4.1
12,N#Cc1ccccc1N1CCN(C[C@@H](O)COC[C@H](Cc2ccccc2)NC(=O)c2ccncc2)CC1,18.6
13,N#Cc1ccccc1N1CCN(C[C@H](O)COC[C@@H](Cc2ccccc2)NC(=O)C2CCN(C(=O)OCc3ccccc3)CC2)CC1,> 100

# Target: T2, Cathepsin S (Homo sapiens, UniProt P25774)
# Assay: Inhibition of human cathepsin S
# Details: not given
# Target sequence in this assay (P25774 whole entry): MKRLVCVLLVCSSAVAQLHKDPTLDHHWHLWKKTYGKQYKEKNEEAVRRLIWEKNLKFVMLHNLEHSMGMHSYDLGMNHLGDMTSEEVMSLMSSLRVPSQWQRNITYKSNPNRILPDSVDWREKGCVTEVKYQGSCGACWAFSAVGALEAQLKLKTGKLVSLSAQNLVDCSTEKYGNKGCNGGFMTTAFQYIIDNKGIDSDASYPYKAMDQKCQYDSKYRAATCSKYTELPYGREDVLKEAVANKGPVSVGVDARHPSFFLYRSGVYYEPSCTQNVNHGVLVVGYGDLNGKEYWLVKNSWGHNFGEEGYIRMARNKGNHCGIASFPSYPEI
row,Compound,IC50 [µM]
1,N#Cc1ccccc1N1CCN(C[C@H](O)COC[C@H](Cc2ccccc2)NC(=O)C2CCN(C(=O)OCc3ccccc3)CC2)CC1,11.1
2,O=C(OC[C@@H](Cc1ccccc1)NS(=O)(=O)c1ccc(Br)cc1)[C@@H](Cc1ccccc1)NS(=O)(=O)c1ccccc1,5.02
3,COc1cccc(/C=C/C(=O)NC[C@H](Cc2ccccc2)NS(=O)(=O)c2ccc(C(F)(F)F)cc2)c1,> 100
4,N#Cc1ccccc1N1CCN(C[C@@H](O)COC[C@H](Cc2ccccc2)NS(=O)(=O)c2ccc(C(F)(F)F)cc2)CC1,29.2
5,N#Cc1ccccc1N1CCN(C[C@H](O)COC[C@@H](Cc2ccccc2)NS(=O)(=O)c2ccc(C(F)(F)F)cc2)CC1,40.4
6,COc1ccc(/C=C/C(=O)NC[C@H](Cc2ccccc2)NS(=O)(=O)c2ccc(Br)cc2)cc1OC,> 100
7,N#Cc1ccccc1N1CCN(C[C@H](O)COC[C@H](Cc2ccccc2)NS(=O)(=O)c2ccc(C(F)(F)F)cc2)CC1,30.7
8,COc1ccc(/C=C/C(=O)NC[C@H](Cc2ccccc2)NS(=O)(=O)c2ccc(C(F)(F)F)cc2)cc1OC,> 100
9,N#Cc1ccccc1N1CCN(C[C@@H](O)COC[C@@H](Cc2ccccc2)NC(=O)c2ccncc2)CC1,48.9
10,N#Cc1ccccc1N1CCN(C[C@H](O)COC[C@H](Cc2ccccc2)NS(=O)(=O)c2ccc(Br)cc2)CC1,7.72
11,N#Cc1ccccc1N1CCN(C[C@@H](O)COC[C@@H](Cc2ccccc2)NS(=O)(=O)c2ccc(Br)cc2)CC1,1.79
12,N#Cc1ccccc1N1CCN(C[C@@H](O)COC[C@H](Cc2ccccc2)NC(=O)c2ccncc2)CC1,28.8
13,N#Cc1ccccc1N1CCN(C[C@H](O)COC[C@@H](Cc2ccccc2)NC(=O)C2CCN(C(=O)OCc3ccccc3)CC2)CC1,> 100

# Target: Cathepsin B (Homo sapiens, UniProt P07858)
# Assay: Inhibition of human cathepsin B
# Details: not given
row,Compound,IC50 [µM]
1,N#Cc1ccccc1N1CCN(C[C@H](O)COC[C@H](Cc2ccccc2)NC(=O)C2CCN(C(=O)OCc3ccccc3)CC2)CC1,> 100
2,O=C(OC[C@@H](Cc1ccccc1)NS(=O)(=O)c1ccc(Br)cc1)[C@@H](Cc1ccccc1)NS(=O)(=O)c1ccccc1,> 100
3,COc1cccc(/C=C/C(=O)NC[C@H](Cc2ccccc2)NS(=O)(=O)c2ccc(C(F)(F)F)cc2)c1,> 100
4,N#Cc1ccccc1N1CCN(C[C@@H](O)COC[C@H](Cc2ccccc2)NS(=O)(=O)c2ccc(C(F)(F)F)cc2)CC1,> 100
5,N#Cc1ccccc1N1CCN(C[C@H](O)COC[C@@H](Cc2ccccc2)NS(=O)(=O)c2ccc(C(F)(F)F)cc2)CC1,> 100
6,COc1ccc(/C=C/C(=O)NC[C@H](Cc2ccccc2)NS(=O)(=O)c2ccc(Br)cc2)cc1OC,> 100
7,N#Cc1ccccc1N1CCN(C[C@H](O)COC[C@H](Cc2ccccc2)NS(=O)(=O)c2ccc(C(F)(F)F)cc2)CC1,> 100
8,COc1ccc(/C=C/C(=O)NC[C@H](Cc2ccccc2)NS(=O)(=O)c2ccc(C(F)(F)F)cc2)cc1OC,> 100
9,N#Cc1ccccc1N1CCN(C[C@@H](O)COC[C@@H](Cc2ccccc2)NC(=O)c2ccncc2)CC1,> 100
10,N#Cc1ccccc1N1CCN(C[C@H](O)COC[C@H](Cc2ccccc2)NS(=O)(=O)c2ccc(Br)cc2)CC1,> 100
11,N#Cc1ccccc1N1CCN(C[C@@H](O)COC[C@@H](Cc2ccccc2)NS(=O)(=O)c2ccc(Br)cc2)CC1,> 100
12,N#Cc1ccccc1N1CCN(C[C@@H](O)COC[C@H](Cc2ccccc2)NC(=O)c2ccncc2)CC1,> 100
13,N#Cc1ccccc1N1CCN(C[C@H](O)COC[C@@H](Cc2ccccc2)NC(=O)C2CCN(C(=O)OCc3ccccc3)CC2)CC1,> 100

# Target: T3, Cathepsin K (Homo sapiens, UniProt P43235)
# T3 sequence (P43235 whole entry): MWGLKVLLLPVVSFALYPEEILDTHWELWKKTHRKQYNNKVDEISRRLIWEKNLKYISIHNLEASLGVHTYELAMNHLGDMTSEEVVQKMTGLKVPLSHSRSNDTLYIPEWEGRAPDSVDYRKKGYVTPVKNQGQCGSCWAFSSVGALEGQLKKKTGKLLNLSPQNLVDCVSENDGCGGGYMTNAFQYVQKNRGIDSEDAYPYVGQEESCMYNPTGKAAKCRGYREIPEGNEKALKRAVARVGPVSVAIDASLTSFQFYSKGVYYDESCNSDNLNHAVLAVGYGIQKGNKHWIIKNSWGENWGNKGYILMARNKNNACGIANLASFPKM
# Assay: Inhibition of human cathepsin K
# Details: not given
row,Compound,IC50 [µM]
1,N#Cc1ccccc1N1CCN(C[C@H](O)COC[C@H](Cc2ccccc2)NC(=O)C2CCN(C(=O)OCc3ccccc3)CC2)CC1,> 100
2,O=C(OC[C@@H](Cc1ccccc1)NS(=O)(=O)c1ccc(Br)cc1)[C@@H](Cc1ccccc1)NS(=O)(=O)c1ccccc1,> 100
3,COc1cccc(/C=C/C(=O)NC[C@H](Cc2ccccc2)NS(=O)(=O)c2ccc(C(F)(F)F)cc2)c1,> 100
4,N#Cc1ccccc1N1CCN(C[C@@H](O)COC[C@H](Cc2ccccc2)NS(=O)(=O)c2ccc(C(F)(F)F)cc2)CC1,> 100
5,N#Cc1ccccc1N1CCN(C[C@H](O)COC[C@@H](Cc2ccccc2)NS(=O)(=O)c2ccc(C(F)(F)F)cc2)CC1,> 100
6,COc1ccc(/C=C/C(=O)NC[C@H](Cc2ccccc2)NS(=O)(=O)c2ccc(Br)cc2)cc1OC,> 100
7,N#Cc1ccccc1N1CCN(C[C@H](O)COC[C@H](Cc2ccccc2)NS(=O)(=O)c2ccc(C(F)(F)F)cc2)CC1,> 100
8,COc1ccc(/C=C/C(=O)NC[C@H](Cc2ccccc2)NS(=O)(=O)c2ccc(C(F)(F)F)cc2)cc1OC,> 100
9,N#Cc1ccccc1N1CCN(C[C@@H](O)COC[C@@H](Cc2ccccc2)NC(=O)c2ccncc2)CC1,> 100
10,N#Cc1ccccc1N1CCN(C[C@H](O)COC[C@H](Cc2ccccc2)NS(=O)(=O)c2ccc(Br)cc2)CC1,> 100
11,N#Cc1ccccc1N1CCN(C[C@@H](O)COC[C@@H](Cc2ccccc2)NS(=O)(=O)c2ccc(Br)cc2)CC1,> 100
12,N#Cc1ccccc1N1CCN(C[C@@H](O)COC[C@H](Cc2ccccc2)NC(=O)c2ccncc2)CC1,> 100
13,N#Cc1ccccc1N1CCN(C[C@H](O)COC[C@@H](Cc2ccccc2)NC(=O)C2CCN(C(=O)OCc3ccccc3)CC2)CC1,> 100

# System: BXPC-3
# Assay: Antiproliferative activity against human BxPC-3 cells assessed as reduction of cell viability at <25 uM by MTT assay
# Format: functional
# Details: not given
row,Compound,Activity [%]
1,N#Cc1ccccc1N1CCN(C[C@@H](O)COC[C@@H](Cc2ccccc2)NS(=O)(=O)c2ccc(Br)cc2)CC1,100

# System: PANC-1
# Assay: Antiproliferative activity against human PANC-1 cells assessed as reduction of cell viability at <25 uM by MTT assay
# Format: functional
# Details: not given
row,Compound,Activity [%]
1,N#Cc1ccccc1N1CCN(C[C@@H](O)COC[C@@H](Cc2ccccc2)NS(=O)(=O)c2ccc(Br)cc2)CC1,100

# Target: T1, Procathepsin L
# Assay: Inhibition of cathepsin L activity in human BXPC-3 cells at 6.25 to 25 uM incubated for 48 hrs by fluorescence-based assay
# Format: cell-based
# Details: dose 6.25-25 µM
# Target sequence in this assay (P07711 114-333 limits assumed): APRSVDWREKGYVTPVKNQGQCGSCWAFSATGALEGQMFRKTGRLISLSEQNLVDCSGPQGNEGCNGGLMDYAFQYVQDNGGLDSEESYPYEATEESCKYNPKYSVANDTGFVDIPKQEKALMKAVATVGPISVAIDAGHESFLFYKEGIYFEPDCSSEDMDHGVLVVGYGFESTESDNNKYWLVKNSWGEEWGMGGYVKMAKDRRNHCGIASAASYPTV
row,Compound,inhibition
1,N#Cc1ccccc1N1CCN(C[C@@H](O)COC[C@@H](Cc2ccccc2)NS(=O)(=O)c2ccc(Br)cc2)CC1,Dose-Dependent Effect

# Target: T1, Procathepsin L
# Assay: Inhibition of cathepsin L activity in human PANC-1 cells at 6.25 to 25 uM incubated for 48 hrs by fluorescence-based assay
# Format: cell-based
# Details: dose 6.25-25 µM
# Target sequence in this assay (P07711 114-333 limits assumed): as above
row,Compound,inhibition
1,N#Cc1ccccc1N1CCN(C[C@@H](O)COC[C@@H](Cc2ccccc2)NS(=O)(=O)c2ccc(Br)cc2)CC1,Dose-Dependent Effect

# Target: T2, Cathepsin S
# Assay: Inhibition of cathepsin S activity in human BXPC-3 cells at 6.25 to 25 uM incubated for 48 hrs by fluorescence-based assay
# Format: cell-based
# Details: dose 6.25-25 µM
# Target sequence in this assay (P25774 115-331 limits assumed): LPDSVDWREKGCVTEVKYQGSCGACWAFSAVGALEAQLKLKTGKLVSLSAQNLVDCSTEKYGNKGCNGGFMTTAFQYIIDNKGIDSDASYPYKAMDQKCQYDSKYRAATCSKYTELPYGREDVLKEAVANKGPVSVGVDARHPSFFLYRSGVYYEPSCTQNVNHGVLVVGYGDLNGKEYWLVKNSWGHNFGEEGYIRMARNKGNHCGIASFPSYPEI
row,Compound,inhibition
1,N#Cc1ccccc1N1CCN(C[C@@H](O)COC[C@@H](Cc2ccccc2)NS(=O)(=O)c2ccc(Br)cc2)CC1,Dose-Dependent Effect

# Target: T2, Cathepsin S
# Assay: Inhibition of cathepsin S activity in human PANC-1 cells at 6.25 to 25 uM incubated for 48 hrs by fluorescence-based assay
# Format: cell-based
# Details: dose 6.25-25 µM
# Target sequence in this assay (P25774 115-331 limits assumed): as above
row,Compound,inhibition
1,N#Cc1ccccc1N1CCN(C[C@@H](O)COC[C@@H](Cc2ccccc2)NS(=O)(=O)c2ccc(Br)cc2)CC1,Dose-Dependent Effect

# System: BXPC-3
# Assay: Antiproliferative activity against human BxPC-3 cells assessed as effect on cathepsin L mRNA expression level at 6.25 to 25 uM incubated for 48 hrs by RT-PCR analysis
# Format: functional, cell-based
# Details: dose 6.25-25 µM
row,Compound,Activity
1,N#Cc1ccccc1N1CCN(C[C@@H](O)COC[C@@H](Cc2ccccc2)NS(=O)(=O)c2ccc(Br)cc2)CC1,inactive

# System: PANC-1
# Assay: Antiproliferative activity against human PANC-1 cells assessed as effect on cathepsin L mRNA expression level at 6.25 to 25 uM incubated for 48 hrs by RT-PCR analysis
# Format: functional, cell-based
# Details: dose 6.25-25 µM
row,Compound,Activity
1,N#Cc1ccccc1N1CCN(C[C@@H](O)COC[C@@H](Cc2ccccc2)NS(=O)(=O)c2ccc(Br)cc2)CC1,inactive

# System: BXPC-3
# Assay: Antimetastatic activity in human BXPC-3 cells assessed as reduction in cell migration at 6.25 to 25 uM incubated for 48 hrs by wound healing assay
# Format: functional, cell-based
# Details: dose 6.25-25 µM
row,Compound,Activity
1,N#Cc1ccccc1N1CCN(C[C@@H](O)COC[C@@H](Cc2ccccc2)NS(=O)(=O)c2ccc(Br)cc2)CC1,Dose-Dependent Effect

# System: PANC-1
# Assay: Antimetastatic activity in human PANC-1 cells assessed as reduction in cell migration at 6.25 to 25 uM incubated for 48 hrs by wound healing assay
# Format: functional, cell-based
# Details: dose 6.25-25 µM
row,Compound,Activity
1,N#Cc1ccccc1N1CCN(C[C@@H](O)COC[C@@H](Cc2ccccc2)NS(=O)(=O)c2ccc(Br)cc2)CC1,Dose-Dependent Effect

# System: BXPC-3
# Assay: Anti-invasive activity in human BXPC-3 cells assessed as reduction in cell invasion at 6.25 to 25 uM incubated for 24 hrs by crystal violet staining based transwell migration assay
# Format: functional
# Details: dose 6.25-25 µM
row,Compound,Activity
1,N#Cc1ccccc1N1CCN(C[C@@H](O)COC[C@@H](Cc2ccccc2)NS(=O)(=O)c2ccc(Br)cc2)CC1,Dose-Dependent Effect

# System: PANC-1
# Assay: Anti-invasive activity in human PANC-1 cells assessed as reduction in cell invasion at 6.25 to 25 uM incubated for 24 hrs by crystal violet staining based transwell migration assay
# Format: functional
# Details: dose 6.25-25 µM
row,Compound,Activity
1,N#Cc1ccccc1N1CCN(C[C@@H](O)COC[C@@H](Cc2ccccc2)NS(=O)(=O)c2ccc(Br)cc2)CC1,Dose-Dependent Effect
